From paper PMC9030622, “Investigation of an Allosteric Deoxyhypusine Synthase Inhibitor in P. falciparum” (Molecules, 2022)

Legend:
[1] = molecular target: T1, P. falciparum deoxyhypusine synthase (DHS) (Plasmodium falciparum, UniProt Q9GSW0); assay: deoxyhypusine formation assay with purified recombinant PfDHS, GC/MS readout; partial (max […]) inhibition; assay type: biochemical
T1 construct: recombinant, truncated P. falciparum DHS, N-terminally histidine-tagged
T1 sequence (Q9GSW0 1-496): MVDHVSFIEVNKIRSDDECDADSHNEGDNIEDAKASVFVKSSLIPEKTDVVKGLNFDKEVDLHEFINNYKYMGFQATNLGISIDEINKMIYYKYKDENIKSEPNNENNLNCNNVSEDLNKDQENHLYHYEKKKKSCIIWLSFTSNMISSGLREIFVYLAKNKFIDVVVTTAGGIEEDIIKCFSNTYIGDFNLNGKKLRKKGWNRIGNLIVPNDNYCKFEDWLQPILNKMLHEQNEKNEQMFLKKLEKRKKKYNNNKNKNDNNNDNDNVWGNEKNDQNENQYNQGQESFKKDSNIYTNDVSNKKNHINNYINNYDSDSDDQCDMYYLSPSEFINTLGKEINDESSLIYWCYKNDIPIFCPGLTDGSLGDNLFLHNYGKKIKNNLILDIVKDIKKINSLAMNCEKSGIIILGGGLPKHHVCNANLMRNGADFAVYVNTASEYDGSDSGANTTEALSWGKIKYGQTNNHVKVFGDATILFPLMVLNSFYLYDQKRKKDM

[2] = molecular target: T1, P. falciparum deoxyhypusine synthase (DHS); assay: deoxyhypusine formation assay with purified recombinant PfDHS, GC/MS readout; assay type: biochemical

IC50 [1] [nM] | SMILES | IC50 [2] [nM]
340 | O=C(Nc1cccc2[nH]ccc12)c1cc2ccc(Br)cc2s1 [6-bromo-N-(1H-indol-4yl)-1-benzothiophene-2-carboxamide] | 
 | O=C(O)c1cc(O)c2cccc(O)c2n1 [C, 4,8-Dihydroxyquinoline-2-carboxylic acid] | 112
